Measured values from US20040180855A1, “Methods of treating thrombosis with reduced risk of increased bleeding times” (priority 2003, published 2004).

How the values were obtained:
[1] = system: panel of 40 receptors and enzymes; experiment: Panel of 40 receptors and enzymes (MDS Panlabs Pharmacology Services)
rat plasma = experiment: PT clotting time, rat plasma; format: biochemical; conditions: up to 100 μM
Description: The term “PT” time as used herein refers to prothrombin times which is intended to refer to the time elapsed between formation of an assay solution and detection of clot formation in the assay solution with use of a PT assay, i.e., an assay employing thromboplastin reagents that are used for evaluating blood coagulation associated with the extrinsic pathway.
PT and APTT clotting times were determined as described in Balasubramanian et al., J. Med. Chem., Vol. 36 (1993), at pp. 300-03, incorporated herein by reference. The whole blood aggregation response of rat platelets to collagen was determined using the impedance procedure for a Model 560-CA Chrono-Log aggregometer (Havertown, Pa.).

[2] = system: rat plasma (ex vivo APTT); experiment: Ex vivo clotting time APTT; format: in vivo; conditions: for APTT Increase (X Control): average over 15-90 min
Description: Ex Vivo Clotting Times Ex vivo clotting time assays were used to determine the level of anticoagulation achieved in the thrombosis and bleeding time procedures, described above. A small organic compound for inhibiting Factor XIa was administered at doses (mg/kg+mg/kg/hr) of 0.5+0.5 (n=3), 2+2 (n=4), 6+6 (n=3), 12+12 (n=3) and 24+24 (n=10). Carotid artery blood (0.6 mL drawn into 1/10 volume of 3.8% Na-citrate) was sampled before (0 min control) and at 5, 15, 30, 60 and 90 min after the start of the compound infusion. The APTT was determined in freshly prepared plasma from each sample using the standard procedure for Dade Actin FSL reagent (Baxter Healthcare Corp., Miami, Fla.). The PT was determined in some animals from the 6+6 (n=3), 12+12 (n=3) and 24+24 (n=2) dose groups using Dade Thromboplastin●C reagent.
Plasma was sampled before (0 min control) and after the infusion, at intervals of 5, 15, 30, 60 and 90 min after initiating the infusion. Average APTT increases over the 15-90 min period, an interval most applicable to thrombosis and bleeding time protocols, were calculated. Control APTT values averaged 19.9±1.3 seconds overall. The PT was unaltered as expected from in vitro results. […] The range of efficacious doses in venous and arterial thrombosis (2+2, 6+6, 12+12; mg/kg+mg/kg/hr) produced an APTT increase of about 2.8 times control.

[3] = target: T1, Recombinant tissue plasminogen activator (Homo sapiens, UniProt P00750); experiment: Selectivity assay tissue plasminogen activator; format: biochemical; conditions: Table 3
T1 construct: purchased Genentech
T1 sequence (P00750 36-562): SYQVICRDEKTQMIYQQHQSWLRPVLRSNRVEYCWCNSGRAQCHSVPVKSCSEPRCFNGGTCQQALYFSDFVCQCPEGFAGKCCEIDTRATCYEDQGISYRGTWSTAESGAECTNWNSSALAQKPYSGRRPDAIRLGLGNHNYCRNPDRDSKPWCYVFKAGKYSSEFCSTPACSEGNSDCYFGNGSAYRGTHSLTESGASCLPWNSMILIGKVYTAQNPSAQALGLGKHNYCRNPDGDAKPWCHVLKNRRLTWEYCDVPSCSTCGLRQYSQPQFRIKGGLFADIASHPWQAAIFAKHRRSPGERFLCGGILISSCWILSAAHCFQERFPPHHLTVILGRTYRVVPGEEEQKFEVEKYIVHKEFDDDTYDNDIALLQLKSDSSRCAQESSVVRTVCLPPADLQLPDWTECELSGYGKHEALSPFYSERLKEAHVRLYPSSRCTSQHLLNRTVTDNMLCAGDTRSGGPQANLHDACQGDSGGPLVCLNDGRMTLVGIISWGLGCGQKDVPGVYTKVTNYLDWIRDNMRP

[4] = system: stasis-VT (vena cava thrombosis); experiment: Venous thrombosis, stasis VT model; format: in vivo; conditions: rat stasis VT
Description: General Surgical Preparation Male Sprague Dawley rats (310 to 390 g) were anesthetized with Na-pentobarbital (50 mg/kg i.p.). The left jugular vein was cannulated with PE-50 tubing for drug administration, and the trachea was intubated with PE-205 tubing to ensure airway patency. […] Statistical Analysis In the venous and arterial thrombosis procedures, treatment effects on thrombus weight, baseline blood flow, and average blood flow during thrombosis were determined by analysis of variance with Dunnett's test for comparison to the vehicle group. […] Treatment effects on bleeding times were determined by analysis of variance with Dunnett's test for comparison to the vehicle group. Both post-treatment and pre-treatment bleeding times and the relative bleeding time increases in sec were analyzed. […]

human α-thrombin = target: T2, human α-thrombin (Homo sapiens, UniProt P00734); experiment: Selectivity assay thrombin; format: biochemical; conditions: Table 3
T2 construct: Enzymatic activity of human α-thrombin (Sigma) was measured; purchased Sigma

FIXa = target: T3, FIXa (Homo sapiens, UniProt P00740); experiment: Selectivity assay FIXa; format: biochemical; conditions: Table 3
T3 construct: purchased American Diagnostica
T3 sequence (P00740 227-461 limits assumed): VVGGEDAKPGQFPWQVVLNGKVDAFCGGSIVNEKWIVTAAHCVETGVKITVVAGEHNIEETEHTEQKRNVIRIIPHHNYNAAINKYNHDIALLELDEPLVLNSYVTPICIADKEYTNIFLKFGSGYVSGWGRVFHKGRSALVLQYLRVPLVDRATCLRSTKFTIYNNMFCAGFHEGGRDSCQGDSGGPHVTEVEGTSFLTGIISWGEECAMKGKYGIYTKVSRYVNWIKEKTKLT
T3 sequence (P00740 47-191 partner limits assumed): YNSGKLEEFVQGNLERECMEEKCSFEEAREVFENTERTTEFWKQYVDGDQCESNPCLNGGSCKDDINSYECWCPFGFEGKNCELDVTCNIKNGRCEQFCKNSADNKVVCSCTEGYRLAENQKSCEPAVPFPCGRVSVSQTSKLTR

human factor Xa = target: T4, human factor Xa (Homo sapiens, UniProt P00742); experiment: Selectivity assay factor Xa; format: biochemical; conditions: Table 3; read-out: IC50 (μM) FXa
T4 construct: Factor IXa then converts Factor X to Factor Xa; purchased Kabi Vitrum
T4 sequence (P00742 235-488 limits assumed): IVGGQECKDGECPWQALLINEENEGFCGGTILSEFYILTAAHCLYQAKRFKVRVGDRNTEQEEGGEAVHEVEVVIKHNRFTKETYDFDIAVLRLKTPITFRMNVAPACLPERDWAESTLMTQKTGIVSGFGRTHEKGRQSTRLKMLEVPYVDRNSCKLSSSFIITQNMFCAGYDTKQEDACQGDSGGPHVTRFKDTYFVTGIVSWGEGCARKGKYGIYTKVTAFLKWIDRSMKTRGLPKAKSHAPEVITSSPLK
T4 sequence (P00742 41-179 partner limits assumed): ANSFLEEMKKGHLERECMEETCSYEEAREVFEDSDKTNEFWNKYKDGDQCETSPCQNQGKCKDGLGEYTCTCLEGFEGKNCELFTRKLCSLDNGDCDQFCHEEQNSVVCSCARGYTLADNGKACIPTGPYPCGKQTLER

FXIIa = target: T5, FXIIa (Homo sapiens, UniProt P00748); experiment: Selectivity assay FXIIa; format: biochemical; conditions: Table 3
T5 construct: purchased American Diagnostica
T5 sequence (P00748 373-615 limits assumed, other chains not shown): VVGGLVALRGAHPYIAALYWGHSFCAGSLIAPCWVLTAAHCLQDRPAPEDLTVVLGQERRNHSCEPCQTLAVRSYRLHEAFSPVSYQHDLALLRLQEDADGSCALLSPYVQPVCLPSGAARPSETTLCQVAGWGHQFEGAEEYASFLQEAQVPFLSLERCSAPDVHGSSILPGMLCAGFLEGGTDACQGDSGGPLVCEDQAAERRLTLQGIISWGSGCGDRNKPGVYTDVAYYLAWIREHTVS

CC(C)(C)NC(=O)N1CCN(C(=O)N2C(=O)[C@H](CCCNC(=N)N)[C@H]2C(=O)O)CC1 [Example 4]
inhibition or enhancement of receptor and enzyme activities [1]: No significant inhibition or enhancement | Clotting time PT (rat), concentration that doubles clotting time (rat plasma): >100 µM | APTT Increase (X Control) ([2]; dose 0.5 + 0.5 mg/kg + mg/kg/hr): 1.57 ± 0.22 X Control | APTT Increase (X Control) ([2]; dose 2 + 2 mg/kg + mg/kg/hr): 2.81 ± 0.21 X Control | APTT Increase (X Control) ([2]; dose 6 + 6 mg/kg + mg/kg/hr): 2.73 ± 0.19 X Control | APTT Increase (X Control) ([2]; dose 12 + 12 mg/kg + mg/kg/hr): 2.79 ± 0.26 X Control | APTT Increase (X Control) ([2]; dose 24 + 24 mg/kg + mg/kg/hr): 3.29 ± 0.85 X Control | APTT increase ([2]; range of efficacious doses 2+2, 6+6, 12+12 mg/kg+mg/kg/hr): about 2.8 times control | IC50 [3]: > 33 µM | effect on thrombus weight ([4]; i.v. 2+2 mg/kg+mg/kg/hr): little effect | reduction in thrombus weight ([4]; i.v. 6+6 mg/kg+mg/kg/hr, FIG. 4): 64% | IC50 (human α-thrombin): 10.5 µM | IC50 (FIXa): 17.4 µM | IC50 (human factor Xa): > 33 µM | IC50 (FXIIa): > 33 µM
